Data taken from PMC9497102, “Thiosemicarbazone Derivatives Developed to Overcome COTI-2 Resistance” (Cancers, 2022).
Values after ≈ are worked out from the molar mass of the structure shown. Read-outs that look alike come from different tables or passages of the source.

Assays:
[1] = pKa by UV-vis spectrophotometric titrations; assay type: physicochemical; details: 30% (v/v) DMSO/H2O solution, I = 0.1 M (KCl), 25 °C
Protocol: (§1) The UV-vis spectra were recorded using an Agilent Cary 8454 diode array spectrophotometer in the 200 to 950 nm window, and the path length was varied between 1 and 5 cm, depending on the solubility (thus the applicable concentration). For the spectrophotometric titrations, the same instruments (Metrohm 665 Dosimat burette, Orion 710A pH-meter, Metrohm combined pH glass electrode) and experimental setup (ionic strength: 0.10 M (KCl); titrant: 0.10 M carbonate-free KOH solution in 30% (v/v) DMSO/H2O; samples: prepared in 30% (v/v) DMSO/H2O; calibration: method of Irving et al.; pH range: 1.0 to 13.5; and sample volume: 10 cm^3) were used as in our previous work. Argon overpressure was used for the Fe(II)-containing samples when the Fe(II) stock solution was added to the samples in tightly closed titration vessels, which were previously completely deoxygenated (for 20 min). Measurements were taken with ligands (10–80 μM, depending on solubility) in the presence of 1, 0.5, and 0.3 equiv. of Cu(II), Fe(II), and Fe(III) ions. Equilibrium constants, such as the proton dissociation constants (pKa) of the ligands, the overall stability constants (logβ) of the metal complexes, and the UV-vis spectra of the individual ligand or complex species were computed using the program PSEQUAD [18], as was the case in our previous works.

[2] = Thermodynamic solubility in water at pH 7.4 (UV-vis); assay type: physicochemical; details: water at pH 7.4 (20 mM HEPES buffer), aqueous buffer, thermodynamic from solid, water pH 7.4 (20 mM HEPES), 25 °C, read-out: S (meas.)
Protocol: The thermodynamic solubility of COTI-NMeCy, COTI-Nme2, COTI-NH2, and COTI-2 was measured for the saturated solutions in water at pH 7.4 (20 mM HEPES buffer) at 25.0 ± 0.1 °C. The concentrations of the compounds were determined by UV-vis spectrophotometry using stock solutions of the compounds with known concentrations dissolved in pure DMSO, and 50% and 1% (v/v) DMSO/buffered aqueous solution for the calibration. The parallel artificial membrane permeability assay (PAMPA) was applied for the ligands with a Corning Gentest pre-coated PAMPA Plate System. Peff values were calculated according to the equation reported by Yu et al..

[3] = Iron(II) complex formation, UV-vis spectrophotometric titrations (anaerobic); assay type: physicochemical; details: for pFe(II): –log[free Fe(II)] calculated at cFe = 1 μM, cL = 10 μM, pH = 7.40
Protocol: as §1

[4] = Zinc(II) complex formation, UV-vis spectrophotometric titrations; assay type: physicochemical; details: for pZn: calculated at cM = 1 μM, cL = 10 μM, pH = 7.40
[5] = Cyclic voltammetry of copper(II)–ligand (1:1) systems; assay type: physicochemical; details: cL = cCu(II) = 1 mM, pH 7.40, 25 °C, 90% (v/v) DMSO/H2O, 0.01 V/s scan rate
Protocol: Cyclic voltammograms for the Fe(III) and Cu(II) complexes were recorded in 90% (v/v) DMSO/water solution containing 1 mM ligand and 0.5 mM FeCl3 or 1 mM CuCl2 using a conventional three-electrode system under nitrogen atmosphere and a PC-Controlled Electrochemical Measurement System (EF 451). The ionic strength was 0.10 M, adjusted by TBAN. Samples were purged for 15 min with Ar before recording the cyclic voltammograms. Platinum electrodes were used as the working and auxiliary electrodes, and Ag/AgCl (3 M KCl) was applied as the reference electrode. The electrochemical potentials were converted into the normal hydrogen electrode (NHE) scale by adding 0.222 V. The instrument was calibrated with an aqueous solution of K3[Fe(CN)6] (E1/2 = +0.386 V vs. NHE). Redox potentials were obtained at different scan rates (5–25 mV/s) in the range of −0.8 to +0.1 V. The dependence of the peak current values of the square root of the scan rates is shown in Figure S5 for the iron and copper complexes of COTI-NMeCy.

SW480 cells = assay: MTT viability assay in combination with copper chelator TTM; assay type: cell-based, human; details: TTM 1 µM and 5 µM, 72 h
Protocol: For the cytotoxicity, cell viability, and proliferation studies, the 3-(4,5-dimethylthiazol-2-yl)-2,5-diphenyltetrazolium bromide (MTT) assay was utilized. Cells were seeded in 96-well plates at a density of 2 × 10^4 cells/well, with the exception of SW480/Tria, which was used at a density of 3 × 10^4 cells/well. After 24 h of recovery, cells were treated with the indicated concentration of drugs. For the drug combination experiments, verapamil and cyclosporine A (CSA) were used as […] modulators, and tetrathiomolybdate (TTM) was used as a copper chelator. The TSCs were dissolved in DMSO followed by subsequent dilutions in the medium in order to maintain a final DMSO concentration of <1%. After 72 h, the treatment solution was removed and replaced with 100 µL of MTT solution (EZ4U, Biomedica, Vienna, Austria), which was diluted 1:10 in the growth medium. A TECAN Infinite 200 Pro plate reader was used to measure the absorbance of the solution after 2–3 h incubation at 5% CO2 in an incubator at 37 °C. The anticancer activity was determined with GraphPad Prism software and indicated as IC50 values (half maximum inhibitory concentration).

[6] = T = 25.0 °C, I = 0.10 M (KCl), 30% (v/v) DMSO/H2O

pKa ([1]; read-out: pKa (H2L))	pKa ([1]; read-out: pKa (HL))	solubility thermodynamic [2] [µM]	logβ [Fe(II)L2] [3, 6]	logβ [Fe(II)L]^+ [3, 6]	pFe(II) [3]	logβ [ZnL2] [4, 6]	logβ [ZnL]^+ [4, 6]	pZn [4]	E′ vs. NHE, copper(II)–ligand (1:1) systems [5] [V]	pKa ([1]; read-out: pKa (H3L))	logβ [Fe(II)L2H2]^2+ [3, 6]	logβ [Fe(II)L2H]^+ [3, 6]	logβ [Fe(II)LH]^2+ [3, 6]	logβ [ZnLH]^2+ [4, 6]	free ligand in the presence of zinc(II) ([4]; calculated distribution, 1 µM COTI-2, 2:1 ligand:zinc(II), pH 7.4)	Structure (SMILES)	impact of copper chelator TTM on anticancer activity (SW480 cells)
3.47 ± 0.01	12.4 ± 0.01	3.9 (≈ 1.23 µg/mL)	31.04 ± 0.03	18.66 ± 0.03	16.9	26.32 ± 0.09	12.94 ± 0.04	12.1	-0.22	–	–	–	–	–	–	CN(C(=S)N/N=C1\CCCc2cccnc21)C1CCCCC1 [COTI-NMeCy, N-Cyclohexyl-2-(6,7-dihydroquinolin-8(5H)-ylidene)-N^4-methylhydrazine-1-carbothioamide]	strong protective activity
3.65 ± 0.01	12.09 ± 0.01	417	31.33 ± 0.09	17.62 ± 0.03	17.8	25.24 ± 0.08	13.02 ± 0.04	11.7	-0.24	–	–	–	–	–	–	CN(C)C(=S)NN=C1CCCc2cccnc21 (mixture of isomers) [COTI-NMe2, 2-(6,7-Dihydroquinolin-8(5H)-ylidene)-N^4,N^4-dimethylhydrazine-1-carbothioamide]	strong protective activity
5.08 ± 0.01	10.97 ± 0.01	0.41 (≈ 0.15 µg/mL)	30.63 ± 0.09	18.28 ± 0.06	19.3	23.23 ± 0.08	12.85 ± 0.02	11.9	-0.19	3.23 ± 0.01	41.18 ± 0.06	36.74 ± 0.09	21.00 ± 0.03	18.54 ± 0.02	10–20%	S=C(N/N=C1\CCCc2cccnc21)N1CCN(c2ccccn2)CC1 [COTI-2, 4-(pyridine-2-yl)-N-([(8E)-5,6,7,8-tetrahydroquinolin-8-ylidene]amino)piperazine-1-carbothioamide]	strong protective activity
